{
  "source": "patent US12427157B2",
  "about": "“Methods for treatment of diseases involving acidic or hypoxic diseased tissues” (Cybrexa 1, Inc., priority 2018, dated 2025)",
  "note": "Residues, ends and D or L forms follow the SMILES beside them. *: point of attachment. X17 = C[C@@H](COC(=O)N1CCC[C@@H](c2ccc(-n3cc4cccc(C(N)=O)c4n3)cc2)C1)S*; X21 = NC(=O)c1cccc2cn(-c3ccc([C@@H]4CCCN(C(=O)OCCS*)C4)cc3)nc12; X14 = C[C@@H](COC(=O)N1CCC[C@]1(C)c1nc2c(C(N)=O)cccc2[nH]1)S*; X16 = C[C@H](COC(=O)N1CCC[C@]1(C)c1nc2c(C(N)=O)cccc2[nH]1)S*; X22 = C[C@]1(c2nc3c(C(N)=O)cccc3[nH]2)CCCN1C(=O)OCCS*",
  "data": [
    {"biological_target": "PARP (Homo sapiens, UniProt P09874)", "sequence (P09874 whole entry)": "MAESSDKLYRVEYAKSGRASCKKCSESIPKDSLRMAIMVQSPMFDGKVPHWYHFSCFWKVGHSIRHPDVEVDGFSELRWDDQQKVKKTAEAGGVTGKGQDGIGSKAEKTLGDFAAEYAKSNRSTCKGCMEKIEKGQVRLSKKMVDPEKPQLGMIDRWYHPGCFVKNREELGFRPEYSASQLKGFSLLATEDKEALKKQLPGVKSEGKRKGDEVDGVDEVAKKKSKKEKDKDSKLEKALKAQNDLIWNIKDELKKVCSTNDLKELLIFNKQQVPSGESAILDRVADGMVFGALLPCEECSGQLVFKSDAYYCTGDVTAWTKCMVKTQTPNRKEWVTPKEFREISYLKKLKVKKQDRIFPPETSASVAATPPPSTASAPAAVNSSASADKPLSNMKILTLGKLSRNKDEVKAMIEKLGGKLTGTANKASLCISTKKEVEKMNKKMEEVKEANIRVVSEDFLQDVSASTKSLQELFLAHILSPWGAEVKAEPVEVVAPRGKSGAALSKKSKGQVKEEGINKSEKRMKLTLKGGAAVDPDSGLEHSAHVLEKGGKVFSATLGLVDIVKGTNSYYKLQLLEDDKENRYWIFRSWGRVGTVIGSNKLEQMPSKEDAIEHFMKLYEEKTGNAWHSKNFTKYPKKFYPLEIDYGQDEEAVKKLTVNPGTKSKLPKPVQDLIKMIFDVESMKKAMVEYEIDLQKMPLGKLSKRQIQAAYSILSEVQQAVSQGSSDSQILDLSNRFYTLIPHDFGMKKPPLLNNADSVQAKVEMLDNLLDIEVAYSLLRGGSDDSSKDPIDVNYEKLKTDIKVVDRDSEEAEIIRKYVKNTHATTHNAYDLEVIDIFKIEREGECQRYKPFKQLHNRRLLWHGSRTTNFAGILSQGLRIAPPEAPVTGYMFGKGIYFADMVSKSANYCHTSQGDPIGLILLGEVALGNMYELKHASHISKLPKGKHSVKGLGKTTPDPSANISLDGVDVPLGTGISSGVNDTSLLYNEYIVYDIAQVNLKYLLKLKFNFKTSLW", "assay": "Enzymatic Assay 2: HT Universal Chemiluminescent PARP Assay of cleaved compounds;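 also: PARP reaction with activated DNA run 1 h at room temperature, product detected via streptavidin-HRP and luminescence endpoint reading on a plate reader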", "details": "not given", "units": {"IC50": "nM"}, "values": [
      {"smiles": "C[C@]12CCCN1C1=NNC(=O)c3cc(F)cc4[nH]c(c1c34)C2", "note": "[R^8H-17, reference compound]", "IC50": 1}
    ]},
    {"biological_target": "PARP (Homo sapiens, UniProt P09874)", "assay": "Enzymatic Assay 2: HT Universal Chemiluminescent PARP Assay of cleaved compounds;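 also: PARP reaction with activated DNA run 1 h at room temperature, product detected via streptavidin-HRP and luminescence endpoint reading on a plate reader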", "details": "read-out: IC50 Enzymatic Assay 2; Examples cleaved per Example A (crude cleavage solution); R^8H starting materials as such", "units": {"IC50": "nM"}, "values": [
      {"smiles": "CC[C@H](C)[C@H](NC(=O)[C@@H]1CCCN1C(=O)[C@H](CC(N)=O)NC(=O)[C@H](CCC(N)=O)NC(=O)[C@H](CCC(=O)O)NC(=O)[C@H](C)N)C(=O)N[C@@H](Cc1ccc(O)cc1)C(=O)N[C@@H](Cc1c[nH]c2ccccc12)C(=O)N[C@@H](C)C(=O)N[C@@H](CCCNC(=N)N)C(=O)N[C@@H](Cc1ccc(O)cc1)C(=O)N[C@@H](C)C(=O)N[C@@H](CC(=O)O)C(=O)N[C@@H](Cc1c[nH]c2ccccc12)C(=O)N[C@@H](CC(C)C)C(=O)N[C@@H](Cc1ccccc1)C(=O)N[C@H](C(=O)N[C@H](C(=O)N1CCC[C@H]1C(=O)N[C@@H](CC(C)C)C(=O)N[C@@H](CC(C)C)C(=O)N[C@@H](CC(C)C)C(=O)N[C@@H](CC(C)C)C(=O)N[C@@H](CC(=O)O)C(=O)N[C@@H](CC(C)C)C(=O)N[C@@H](C)C(=O)N[C@@H](CC(C)C)C(=O)N[C@@H](CC(C)C)C(=O)N[C@H](C(=O)N[C@@H](CC(=O)O)C(=O)N[C@@H](C)C(=O)N[C@@H](CC(=O)O)C(=O)N[C@@H](CCC(=O)O)C(=O)N[C@@H](CSS[C@@H](C)COC(=O)N1CCC[C@@H](c2ccc(-n3cc4cccc(C(N)=O)c4n3)cc2)C1)C(=O)NCC(=O)O)C(C)C)[C@@H](C)O)[C@@H](C)O", "note": "[Example 48] (H-AEQNPIYWARYADWLFTTPLLLLDLALLVDADEC(X17)G-OH; N-terminus and C-terminus assumed)", "IC50": 2.1},
      {"smiles": "CC[C@H](C)[C@H](NC(=O)[C@@H]1CCCN1C(=O)[C@H](CC(N)=O)NC(=O)[C@H](CCC(N)=O)NC(=O)[C@H](CCC(=O)O)NC(=O)[C@H](C)N)C(=O)N[C@@H](Cc1ccc(O)cc1)C(=O)N[C@@H](Cc1c[nH]c2ccccc12)C(=O)N[C@@H](C)C(=O)N[C@@H](CCCNC(=N)N)C(=O)N[C@@H](Cc1ccc(O)cc1)C(=O)N[C@@H](C)C(=O)N[C@@H](CC(=O)O)C(=O)N[C@@H](Cc1c[nH]c2ccccc12)C(=O)N[C@@H](CC(C)C)C(=O)N[C@@H](Cc1ccccc1)C(=O)N[C@H](C(=O)N[C@H](C(=O)N1CCC[C@H]1C(=O)N[C@@H](CC(C)C)C(=O)N[C@@H](CC(C)C)C(=O)N[C@@H](CC(C)C)C(=O)N[C@@H](CC(C)C)C(=O)N[C@@H](CC(=O)O)C(=O)N[C@@H](CC(C)C)C(=O)N[C@@H](C)C(=O)N[C@@H](CC(C)C)C(=O)N[C@@H](CC(C)C)C(=O)N[C@H](C(=O)N[C@@H](CC(=O)O)C(=O)N[C@@H](C)C(=O)N[C@@H](CC(=O)O)C(=O)N[C@@H](CCC(=O)O)C(=O)N[C@@H](CSSCCOC(=O)N1CCC[C@@H](c2ccc(-n3cc4cccc(C(N)=O)c4n3)cc2)C1)C(=O)NCC(=O)O)C(C)C)[C@@H](C)O)[C@@H](C)O", "note": "[Example 49] (H-AEQNPIYWARYADWLFTTPLLLLDLALLVDADEC(X21)G-OH; N-terminus and C-terminus assumed)", "IC50": 26},
      {"smiles": "CC(C)C[C@H](NC(=O)[C@H](Cc1ccc(O)cc1)NC(=O)[C@H](C)NC(=O)[C@H](CCCNC(=N)N)NC(=O)[C@H](Cc1c[nH]c2ccccc12)NC(=O)[C@@H]1CCCN1C(=O)[C@H](CC(N)=O)NC(=O)[C@H](CCC(N)=O)NC(=O)[C@H](CC(=O)O)NC(=O)[C@H](CC(=O)O)NC(=O)[C@H](C)N)C(=O)N[C@@H](CC(=O)O)C(=O)N[C@@H](CC(C)C)C(=O)N[C@@H](CC(C)C)C(=O)N[C@@H](Cc1ccccc1)C(=O)N1CCC[C@H]1C(=O)N[C@H](C(=O)N[C@@H](CC(=O)O)C(=O)N[C@H](C(=O)N[C@@H](CC(C)C)C(=O)N[C@@H](CC(C)C)C(=O)N[C@@H](CC(C)C)C(=O)N[C@@H](CC(=O)O)C(=O)N[C@@H](CC(C)C)C(=O)N[C@@H](CC(C)C)C(=O)N[C@@H](Cc1c[nH]c2ccccc12)C(=O)N[C@@H](CC(=O)O)C(=O)N[C@@H](C)C(=O)N[C@@H](CC(=O)O)C(=O)N[C@@H](CCC(=O)O)C(=O)N[C@@H](CSS[C@H](C)COC(=O)N1CCC[C@]1(C)c1nc2c(C(N)=O)cccc2[nH]1)C(=O)NCC(=O)O)[C@@H](C)O)[C@@H](C)O", "note": "[Example 51]", "IC50": 0.9},
      {"smiles": "CC(C)C[C@H](NC(=O)[C@H](Cc1ccc(O)cc1)NC(=O)[C@H](C)NC(=O)[C@H](CCCNC(=N)N)NC(=O)[C@H](Cc1c[nH]c2ccccc12)NC(=O)[C@@H]1CCCN1C(=O)[C@H](CC(N)=O)NC(=O)[C@H](CCC(N)=O)NC(=O)[C@H](CC(=O)O)NC(=O)[C@H](CC(=O)O)NC(=O)[C@H](C)N)C(=O)N[C@@H](CC(=O)O)C(=O)N[C@@H](CC(C)C)C(=O)N[C@@H](CC(C)C)C(=O)N[C@@H](Cc1ccccc1)C(=O)N1CCC[C@H]1C(=O)N[C@H](C(=O)N[C@@H](CC(=O)O)C(=O)N[C@H](C(=O)N[C@@H](CC(C)C)C(=O)N[C@@H](CC(C)C)C(=O)N[C@@H](CC(C)C)C(=O)N[C@@H](CC(=O)O)C(=O)N[C@@H](CC(C)C)C(=O)N[C@@H](CC(C)C)C(=O)N[C@@H](Cc1c[nH]c2ccccc12)C(=O)N[C@@H](CC(=O)O)C(=O)N[C@@H](C)C(=O)N[C@@H](CC(=O)O)C(=O)N[C@@H](CCC(=O)O)C(=O)N[C@@H](CSS[C@@H](C)COC(=O)N1CCC[C@]1(C)c1nc2c(C(N)=O)cccc2[nH]1)C(=O)NCC(=O)O)[C@@H](C)O)[C@@H](C)O", "note": "[Example 52]", "IC50": 1.1},
      {"smiles": "CC[C@H](C)[C@H](NC(=O)[C@@H]1CCCN1C(=O)[C@H](CC(N)=O)NC(=O)[C@H](CCC(N)=O)NC(=O)[C@H](CCC(=O)O)NC(=O)[C@H](C)N)C(=O)N[C@@H](Cc1ccc(O)cc1)C(=O)N[C@@H](Cc1c[nH]c2ccccc12)C(=O)N[C@@H](C)C(=O)N[C@@H](CCCNC(=N)N)C(=O)N[C@@H](Cc1ccc(O)cc1)C(=O)N[C@@H](C)C(=O)N[C@@H](CC(=O)O)C(=O)N[C@@H](Cc1c[nH]c2ccccc12)C(=O)N[C@@H](CC(C)C)C(=O)N[C@@H](Cc1ccccc1)C(=O)N[C@H](C(=O)N[C@H](C(=O)N1CCC[C@H]1C(=O)N[C@@H](CC(C)C)C(=O)N[C@@H](CC(C)C)C(=O)N[C@@H](CC(C)C)C(=O)N[C@@H](CC(C)C)C(=O)N[C@@H](CC(=O)O)C(=O)N[C@@H](CC(C)C)C(=O)N[C@@H](C)C(=O)N[C@@H](CC(C)C)C(=O)N[C@@H](CC(C)C)C(=O)N[C@H](C(=O)N[C@@H](CC(=O)O)C(=O)N[C@@H](C)C(=O)N[C@@H](CC(=O)O)C(=O)N[C@@H](CCC(=O)O)C(=O)N[C@@H](CSSCCOC(=O)N1CCC[C@]1(C)c1nc2c(C(N)=O)cccc2[nH]1)C(=O)NCC(=O)O)C(C)C)[C@@H](C)O)[C@@H](C)O", "note": "[Example 53] (H-AEQNPIYWARYADWLFTTPLLLLDLALLVDADEC(X22)G-OH; N-terminus and C-terminus assumed)", "IC50": 1},
      {"smiles": "CC[C@H](C)[C@H](NC(=O)[C@@H]1CCCN1C(=O)[C@H](CC(N)=O)NC(=O)[C@H](CCC(N)=O)NC(=O)[C@H](CCC(=O)O)NC(=O)[C@H](C)N)C(=O)N[C@@H](Cc1ccc(O)cc1)C(=O)N[C@@H](Cc1c[nH]c2ccccc12)C(=O)N[C@@H](C)C(=O)N[C@@H](CCCNC(=N)N)C(=O)N[C@@H](Cc1ccc(O)cc1)C(=O)N[C@@H](C)C(=O)N[C@@H](CC(=O)O)C(=O)N[C@@H](Cc1c[nH]c2ccccc12)C(=O)N[C@@H](CC(C)C)C(=O)N[C@@H](Cc1ccccc1)C(=O)N[C@H](C(=O)N[C@H](C(=O)N1CCC[C@H]1C(=O)N[C@@H](CC(C)C)C(=O)N[C@@H](CC(C)C)C(=O)N[C@@H](CC(C)C)C(=O)N[C@@H](CC(C)C)C(=O)N[C@@H](CC(=O)O)C(=O)N[C@@H](CC(C)C)C(=O)N[C@@H](C)C(=O)N[C@@H](CC(C)C)C(=O)N[C@@H](CC(C)C)C(=O)N[C@H](C(=O)N[C@@H](CC(=O)O)C(=O)N[C@@H](C)C(=O)N[C@@H](CC(=O)O)C(=O)N[C@@H](CCC(=O)O)C(=O)N[C@@H](CSS[C@H](C)COC(=O)N1CCC[C@]1(C)c1nc2c(C(N)=O)cccc2[nH]1)C(=O)NCC(=O)O)C(C)C)[C@@H](C)O)[C@@H](C)O", "note": "[Example 54] (H-AEQNPIYWARYADWLFTTPLLLLDLALLVDADEC(X16)G-OH; N-terminus and C-terminus assumed)", "IC50": 0.6},
      {"smiles": "CC[C@H](C)[C@H](NC(=O)[C@@H]1CCCN1C(=O)[C@H](CC(N)=O)NC(=O)[C@H](CCC(N)=O)NC(=O)[C@H](CCC(=O)O)NC(=O)[C@H](C)N)C(=O)N[C@@H](Cc1ccc(O)cc1)C(=O)N[C@@H](Cc1c[nH]c2ccccc12)C(=O)N[C@@H](C)C(=O)N[C@@H](CCCNC(=N)N)C(=O)N[C@@H](Cc1ccc(O)cc1)C(=O)N[C@@H](C)C(=O)N[C@@H](CC(=O)O)C(=O)N[C@@H](Cc1c[nH]c2ccccc12)C(=O)N[C@@H](CC(C)C)C(=O)N[C@@H](Cc1ccccc1)C(=O)N[C@H](C(=O)N[C@H](C(=O)N1CCC[C@H]1C(=O)N[C@@H](CC(C)C)C(=O)N[C@@H](CC(C)C)C(=O)N[C@@H](CC(C)C)C(=O)N[C@@H](CC(C)C)C(=O)N[C@@H](CC(=O)O)C(=O)N[C@@H](CC(C)C)C(=O)N[C@@H](C)C(=O)N[C@@H](CC(C)C)C(=O)N[C@@H](CC(C)C)C(=O)N[C@H](C(=O)N[C@@H](CC(=O)O)C(=O)N[C@@H](C)C(=O)N[C@@H](CC(=O)O)C(=O)N[C@@H](CCC(=O)O)C(=O)N[C@@H](CSS[C@@H](C)COC(=O)N1CCC[C@]1(C)c1nc2c(C(N)=O)cccc2[nH]1)C(=O)NCC(=O)O)C(C)C)[C@@H](C)O)[C@@H](C)O", "note": "[Example 55] (H-AEQNPIYWARYADWLFTTPLLLLDLALLVDADEC(X14)G-OH; N-terminus and C-terminus assumed)", "IC50": 0.7},
      {"smiles": "CC(C)C[C@H](NC(=O)[C@H](Cc1ccc(O)cc1)NC(=O)[C@H](C)NC(=O)[C@H](CCCNC(=N)N)NC(=O)[C@H](Cc1c[nH]c2ccccc12)NC(=O)[C@@H]1CCCN1C(=O)[C@H](CC(N)=O)NC(=O)[C@H](CCC(N)=O)NC(=O)[C@H](CC(=O)O)NC(=O)[C@H](CC(=O)O)NC(=O)[C@H](C)N)C(=O)N[C@@H](CC(=O)O)C(=O)N[C@@H](CC(C)C)C(=O)N[C@@H](CC(C)C)C(=O)N[C@@H](Cc1ccccc1)C(=O)N1CCC[C@H]1C(=O)N[C@H](C(=O)N[C@@H](CC(=O)O)C(=O)N[C@H](C(=O)N[C@@H](CC(C)C)C(=O)N[C@@H](CC(C)C)C(=O)N[C@@H](CC(C)C)C(=O)N[C@@H](CC(=O)O)C(=O)N[C@@H](CC(C)C)C(=O)N[C@@H](CC(C)C)C(=O)N[C@@H](Cc1c[nH]c2ccccc12)C(=O)N[C@@H](CC(=O)O)C(=O)N[C@@H](C)C(=O)N[C@@H](CC(=O)O)C(=O)N[C@@H](CCC(=O)O)C(=O)N[C@@H](CSSc1ccc(COC(=O)N2CCC[C@]2(C)c2nc3c(C(N)=O)cccc3[nH]2)cc1)C(=O)NCC(=O)O)[C@@H](C)O)[C@@H](C)O", "note": "[Example 56]", "IC50": 0.8}
    ]}
  ]
}
